Measurements: Sander's compilation of Henry's law constants (doi:10.1016/1352-2310(94)00256-k)

Experiment: Henry solubility constant Hcp at 298.15 K (mol/(m3 Pa))
Conditions: reference: Dewulf et al. (1995)

Structure (SMILES) | Henry solubility constant Hcp
c1ccccc1 [benzene] | 0.0021
ClC=C(Cl)Cl [trichloroethene] | 0.0012
Cc1ccc(C)cc1 [1,4-dimethylbenzene] | 0.0017
Cc1cccc(C)c1 [1,3-dimethylbenzene] | 0.0016
CCc1ccccc1 [ethylbenzene] | 0.0015
CC(Cl)(Cl)Cl [1,1,1-trichloroethane] | 0.00067
ClC(Cl)=C(Cl)Cl [tetrachloroethene] | 0.00069
Cc1ccccc1C [1,2-dimethylbenzene] | 0.0024
Cc1ccccc1 [methylbenzene] | 0.0018
ClC(Cl)(Cl)Cl [tetrachloromethane] | 0.00038
